# Source: PubChem BioAssay AID1671277
# Molecular target: Tyrosine-protein kinase Fgr (Homo sapiens) (UniProt P09769)
# Assay: FGR kinase inhibition, dose response, biochemical, Z'-LYTE, FRET readout, direct format (AID 1671277)
# Settings: Z'-LYTE FRET kinase activity, recombinant FGR
# Sequence of Tyrosine-protein kinase Fgr (Homo sapiens) (P09769 whole entry, looked up): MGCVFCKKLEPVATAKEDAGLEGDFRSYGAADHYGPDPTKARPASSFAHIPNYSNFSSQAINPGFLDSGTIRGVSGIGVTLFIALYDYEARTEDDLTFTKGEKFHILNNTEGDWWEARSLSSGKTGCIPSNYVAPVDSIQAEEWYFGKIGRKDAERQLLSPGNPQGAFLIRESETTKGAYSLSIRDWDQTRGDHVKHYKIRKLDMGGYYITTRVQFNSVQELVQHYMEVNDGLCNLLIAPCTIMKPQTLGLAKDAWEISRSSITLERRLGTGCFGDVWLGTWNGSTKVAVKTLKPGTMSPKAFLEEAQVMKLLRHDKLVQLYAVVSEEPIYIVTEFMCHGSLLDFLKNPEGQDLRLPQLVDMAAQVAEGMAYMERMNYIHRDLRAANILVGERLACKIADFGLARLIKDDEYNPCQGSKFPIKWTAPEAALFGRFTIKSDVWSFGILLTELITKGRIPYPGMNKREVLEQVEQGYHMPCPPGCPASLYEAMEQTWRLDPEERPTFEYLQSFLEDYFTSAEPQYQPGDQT
structure (smiles),measurement,value
COc1cc2ncnc(Nc3cccc(Cl)c3)c2cc1OC,IC50,919 nM
